Patent US7879858B2, “Substituted tetrahydropyrrolopyrazine compounds and the use thereof in pharmaceutical compositions” (Gruenenthal GmbH, priority 2006, dated 2011)

Assays:
Serotonin reuptake = target: T1, Serotonin reuptake (Rattus norvegicus, UniProt P31652); test: Inhibition of 5HT (serotonin) uptake in rat brain synaptosomes; assay type: biochemical; conditions: synaptosomes from rat brain; for inhibition at 10 µM: 10 μmol
T1 construct: synaptosomes are freshly isolated from areas of the rat brain; from tissue; host or cells: rat brain synaptosomes (P2 fraction)
T1 sequence (P31652 whole entry): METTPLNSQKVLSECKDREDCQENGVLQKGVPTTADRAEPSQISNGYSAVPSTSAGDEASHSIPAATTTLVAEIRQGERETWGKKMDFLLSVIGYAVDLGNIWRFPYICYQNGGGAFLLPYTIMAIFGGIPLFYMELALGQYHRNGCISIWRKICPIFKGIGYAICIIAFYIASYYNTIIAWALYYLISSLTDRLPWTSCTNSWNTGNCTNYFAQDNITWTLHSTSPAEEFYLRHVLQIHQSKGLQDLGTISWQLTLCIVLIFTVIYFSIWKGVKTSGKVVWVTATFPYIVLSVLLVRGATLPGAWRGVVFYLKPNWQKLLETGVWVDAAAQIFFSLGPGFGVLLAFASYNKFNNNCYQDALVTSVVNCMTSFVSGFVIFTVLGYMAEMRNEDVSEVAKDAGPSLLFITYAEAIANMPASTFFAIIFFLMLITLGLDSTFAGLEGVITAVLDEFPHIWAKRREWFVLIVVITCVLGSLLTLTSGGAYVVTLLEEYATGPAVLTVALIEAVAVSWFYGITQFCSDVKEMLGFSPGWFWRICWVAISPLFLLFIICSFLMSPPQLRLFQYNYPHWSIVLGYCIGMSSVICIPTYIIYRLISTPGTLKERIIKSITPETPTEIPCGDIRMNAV
Experimental: (§1) Biological Data Inhibition of NA and 5HT Uptake
(§2) In order to be able to carry out these in vitro studies, synaptosomes are freshly isolated from areas of the rat brain. In each case a so-called “P2” fraction prepared in accordance with the instructions of Gray and Whittaker (E. G. Gray and V. P. Whittaker (1962) J. Anat. 76, 79-88) is prepared. For the NA uptake, these vesicular particles are isolated from the hypothalamus of male rat brains. A detailed description of the method can be found in the literature (M. Ch. Frink, H.-H. Hennies, W. Englberger, M. Haurand and B. Wilffert (1996) Arzneim.-Forsch./Drug Res. 46 (III), 11, 1029-1036).

NA reuptake = test: Inhibition of NA (noradrenaline) uptake in rat hypothalamus synaptosomes; assay type: biochemical; conditions: synaptosomes from hypothalamus of male rat brains
Experimental: as §1, §2

Row | Structure (SMILES) | inhibition at 10 µM (Serotonin reuptake) [%] | NA reuptake % inhibition [10 μmol] (NA reuptake) [%] | Serotonin reuptake % inhibition [10 μmol] (Serotonin reuptake) [%]
1 | COCC(=O)N1CCn2cccc2C1c1ccccc1 (stereo not shown) [Example 25, 2-methoxy-1-(1-phenyl-3,4-dihydropyrrolo[1,2-a]pyrazin-2(1H)-yl)ethanone] | 33 | 12 | 
2 | Cc1ccccc1C(=O)N1CCn2cccc2C1c1ccccc1 (stereo not shown) [Example 26, (1-phenyl-3,4-dihydropyrrolo[1,2-a]pyrazin-2(1H)-yl)(o-tolyl)methanone] | 32 | 23 | 
3 | COc1ccccc1C(=O)N1CCn2cccc2C1c1ccccc1 (stereo not shown) [Example 27, (2-methoxyphenyl)(1-phenyl-3,4-dihydropyrrolo[1,2-a]pyrazin-2(1H)-yl)methanone] | 28 | 15 | 
4 | O=C(C1CCC1)N1CCn2cccc2C1c1ccc(F)cc1 (stereo not shown) [Example 28, cyclobutyl(1-(4-fluorophenyl)-3,4-dihydropyrrolo[1,2-a]pyrazin-2(1H)-yl)methanone] | 29 | 21 | 
5 | COc1ccccc1C(=O)N1CCn2cccc2C1c1ccc(Cl)cc1 (stereo not shown) [Example 29, (1-(4-chlorophenyl)-3,4-dihydropyrrolo[1,2-a]pyrazin-2(1H)-yl)(2-methoxyphenyl)methanone] | 34 | 21 | 
6 | COc1cccc(C2c3cccn3CCN2C(=O)c2ccco2)c1 (stereo not shown) [Example 30, furan-2-yl(1-(3-methoxyphenyl)-3,4-dihydropyrrolo[1,2-a]pyrazin-2(1H)-yl)methanone] | 51 | 16 | 
7 | Cc1ccccc1C1c2cccn2CCN1C(=O)c1ccccc1F (stereo not shown) [Example 32, (2-fluorophenyl)(1-o-tolyl-3,4-dihydropyrrolo[1,2-a]pyrazin-2(1H)-yl)methanone] | 29 | 14 | 
8 | O=C(c1ccc2c(c1)OCO2)N1CCn2cccc2C1c1ccc2c(c1)OCCO2 (stereo not shown) [Example 33, benzo[1,3]dioxol-5-yl-[1-(2,3-dihydro-benzo[1,4]dioxin-6-yl)-3,4-dihydro-1H-pyrrolo[1,2-a]pyrazin-2-yl]-methanone] | 52 | 26 | 
9 | Cc1ccccc1C(=O)N1CCn2cccc2C1c1ccc2c(c1)OCCO2 (stereo not shown) [Example 34, [1-(2,3-dihydro-benzo[1,4]dioxin-6-yl)-3,4-dihydro-1H-pyrrolo[1,2-a]pyrazin-2-yl]-o-tolyl-methanone] | 52 | 22 | 
10 | O=C(c1ccccc1F)N1CCn2cccc2C1c1ccc2c(c1)OCCO2 (stereo not shown) [Example 35, [1-(2,3-dihydro-benzo[1,4]dioxin-6-yl)-3,4-dihydro-1H-pyrrolo[1,2-a]pyrazin-2-yl]-(2-fluoro-phenyl)-methanone] | 66 | 43 | 
11 | O=C(c1cccs1)N1CCn2cccc2C1c1ccc2c(c1)OCCO2 (stereo not shown) [Example 36, [1-(2,3-dihydro-benzo[1,4]dioxin-6-yl)-3,4-dihydro-1H-pyrrolo[1,2-a]pyrazin-2-yl]-thiophen-2-yl-methanone] | 59 | 41 | 
12 | O=C(c1ccco1)N1CCn2cccc2C1c1ccc2c(c1)OCCO2 (stereo not shown) [Example 37, [1-(2,3-dihydro-benzo[1,4]dioxin-6-yl)-3,4-dihydro-1H-pyrrolo[1,2-a]pyrazin-2-yl]-furan-2-yl-methanone] | 55 | 32 | 
13 | O=C(c1ccc(F)cc1)N1CCn2cccc2C1c1ccc2c(c1)OCCO2 (stereo not shown) [Example 38, [1-(2,3-dihydro-benzo[1,4]dioxin-6-yl)-3,4-dihydro-1H-pyrrolo[1,2-a]pyrazin-2-yl]-(4-fluoro-phenyl)-methanone] | 58 | 48 | 
14 | COc1ccccc1C(=O)N1CCn2cccc2C1c1cccc(Cl)c1 (stereo not shown) [Example 39, (1-(3-chlorophenyl)-3,4-dihydropyrrolo[1,2-a]pyrazin-2-(1H)-yl)(2-methoxyphenyl)methanone] |  | 43 | 46
15 | O=C(c1ccc2c(c1)OCO2)N1CCn2cccc2C1c1cccc(Cl)c1 (stereo not shown) [Example 40, benzo[d][1,3]dioxol-5-yl(1-(3-chlorophenyl)-3,4-dihydropyrrolo[1,2-a]pyrazin-2(1H)-yl)methanone] | 38 | 41 | 
16 | Cc1ccccc1C(=O)N1CCn2cccc2C1c1cccc(Cl)c1 (stereo not shown) [Example 41, (1-(3-chlorophenyl)-3,4-dihydropyrrolo[1,2-a]pyrazin-2(1H)-yl)(o-tolyl)methanone] | 37 | 35 | 
17 | O=C(C1CCCC1)N1CCn2cccc2C1c1cccc(Cl)c1 (stereo not shown) [Example 42, (1-(3-chlorophenyl)-3,4-dihydropyrrolo[1,2-a]pyrazin-2(1H)-yl)(cyclopentyl)methanone] | 30 | 22 | 
18 | O=C(c1cccc(F)c1)N1CCn2cccc2C1c1cccc(Cl)c1 (stereo not shown) [Example 43, [1-(3-chloro-phenyl)-3,4-dihydro-1H-pyrrolo[1,2-a]pyrazin-2-yl]-(3-fluoro-phenyl)-methanone] | 58 | 66 | 
19 | O=C(c1ccccc1F)N1CCn2cccc2C1c1cccc(Cl)c1 (stereo not shown) [Example 44, [1-(3-chloro-phenyl)-3,4-dihydro-1H-pyrrolo[1,2-a]pyrazin-2-yl]-(2-fluoro-phenyl)-methanone] | 53 | 41 | 
20 | O=C(c1cccs1)N1CCn2cccc2C1c1cccc(Cl)c1 (stereo not shown) [Example 45, [1-(3-chloro-phenyl)-3,4-dihydro-1H-pyrrolo[1,2-a]pyrazin-2-yl]-thiophen-2-yl-methanone] | 53 | 43 | 
21 | O=C(c1ccc(F)cc1)N1CCn2cccc2C1c1cccc(Cl)c1 (stereo not shown) [Example 46, [1-(3-chloro-phenyl)-3,4-dihydro-1H-pyrrolo[1,2-a]pyrazin-2-yl]-(4-fluoro-phenyl)-methanone] | 52 | 50 | 
22 | O=C(c1ccccc1F)N1CCn2cccc2C1c1ccccc1F (stereo not shown) [Example 47, (2-fluorophenyl)(1-(2-fluorophenyl)-3,4-dihydropyrrolo[1,2-a]pyrazin-2(1H)-yl)methanone] | 18 | 12 | 
23 | COc1ccccc1C1c2cccn2CCN1C(=O)c1ccccc1F (stereo not shown) [Example 49, (2-fluorophenyl)(1-(2-methoxyphenyl)-3,4-dihydropyrrolo[1,2-a]pyrazin-2(1H)-yl)methanone] | 47 | 12 | 
